# Data from the supplement of paper PMC10307832.
# Key:
# Experiment in all cases: relative viability (nuclei count vs DMSO), 5 days (fraction); higher = more cells survive
# Sulindac + Tozasertib = compound: CC1=C(CC(=O)O)c2cc(F)ccc2/C1=C\c1ccc([S+](C)[O-])cc1 [Sulindac] + Cc1cc(Nc2cc(N3CCN(C)CC3)nc(Sc3ccc(NC(=O)C4CC4)cc3)n2)n[nH]1 [Tozasertib] (partner 0.1 µM)
# Outline: (§1)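 Lung cancer cell lines in 1536-well plates got either a single drug or a fixed anchor-drug dose together with five library-drug doses (not always all listed) in √10 steps, by pin tool, on the day after seeding. Nuclei were counted after 5 days, and relative viability is the treated-to-vehicle ratio of nuclei counts. Values are medians of duplicate plates.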
# [1] = compound: CN[C@@H]1C[C@H]2O[C@@](C)([C@@H]1OC)n1c3ccccc3c3c4c(c5c6ccccc6n2c5c31)C(=O)NC4 [Staurosporine] + CCNC(=O)c1noc(-c2cc(C(C)C)c(O)cc2O)c1-c1ccc(CN2CCOCC2)cc1 [Luminespib] (partner 0.01 µM)
# Outline: as §1
# [2] = compound: CN[C@@H]1C[C@H]2O[C@@](C)([C@@H]1OC)n1c3ccccc3c3c4c(c5c6ccccc6n2c5c31)C(=O)NC4 [Staurosporine] + Cc1cc(Nc2cc(N3CCN(C)CC3)nc(Sc3ccc(NC(=O)C4CC4)cc3)n2)n[nH]1 [Tozasertib] (partner 0.1 µM)
# Outline: as §1
# 5-Fluorouracil + AZD7762 = compound: O=c1[nH]cc(F)c(=O)[nH]1 [5-Fluorouracil] + NC(=O)Nc1cc(-c2cccc(F)c2)sc1C(=O)N[C@H]1CCCNC1 [AZD7762] (partner 0.2 µM)
# Outline: as §1
Cell Line,relative viability (Sulindac + Tozasertib; first compound 0.08 µM),relative viability (Sulindac + Tozasertib; first compound 0.253 µM),relative viability (Sulindac + Tozasertib; first compound 2.53 µM),relative viability (Sulindac + Tozasertib; first compound 8 µM),relative viability ([1]; first compound 0.005 µM),relative viability ([1]; first compound 0.01581 µM),relative viability ([1]; first compound 0.05 µM),relative viability ([1]; first compound 0.1581 µM),relative viability ([1]; first compound 0.5 µM),relative viability ([2]; first compound 0.005 µM),relative viability ([2]; first compound 0.01581 µM),relative viability ([2]; first compound 0.05 µM),relative viability ([2]; first compound 0.1581 µM),relative viability ([2]; first compound 0.5 µM),relative viability (5-Fluorouracil + AZD7762; first compound 0.02 µM),relative viability (5-Fluorouracil + AZD7762; first compound 0.2 µM),relative viability (5-Fluorouracil + AZD7762; first compound 0.6325 µM),relative viability (5-Fluorouracil + AZD7762; first compound 2 µM),relative viability (Sulindac + Tozasertib; first compound 0.8 µM)
NCI-H1355,0.544,0.607,0.502,0.57,0.591,0.278,0.212,0.209,0.191,0.577,0.286,0.252,0.188,0.151,0.673,0.37,0.231,0.198,–
EKVX,0.417,0.334,0.434,0.407,0.65,0.385,0.277,0.176,0.107,0.346,0.213,0.17,0.165,0.134,0.322,0.157,0.145,0.157,0.345
NCI-H520,0.431,0.4,0.437,0.48,0.194,0.309,0.233,0.212,0.185,0.57,0.473,0.423,0.366,0.303,–,–,–,–,0.435
NCI-H1993,0.597,0.629,0.651,0.598,0.75,0.532,0.51,0.494,0.303,0.639,0.535,0.434,0.491,0.429,0.737,0.622,0.542,0.505,0.514
HCC-78,0.445,0.476,0.42,0.367,–,–,–,–,–,0.545,0.287,0.424,0.429,0.258,0.562,0.503,0.239,0.306,0.403
NCI-H2087,0.237,0.284,0.293,0.233,0.151,0.139,0.112,0.112,0.0949,0.189,0.206,0.102,0.0977,0.0926,1.42,1.01,0.606,0.408,–
H3255,0.593,0.546,0.616,0.619,0.771,0.513,0.44,0.266,0.212,0.504,0.337,0.203,0.239,0.145,0.98,0.949,0.696,0.567,0.413
NCI-H2126,0.887,0.905,0.754,0.934,0.547,0.318,0.252,0.207,0.207,0.658,0.494,0.348,0.247,0.226,0.995,0.249,0.209,0.256,0.895
LC-2-ad,0.382,0.451,0.391,0.46,0.976,0.41,0.341,0.219,0.185,0.435,0.239,0.253,0.219,0.161,0.922,0.536,0.331,0.253,0.374
SK-LU-1,0.286,0.347,0.288,0.406,0.156,0.117,–,0.117,0.108,0.168,0.115,–,0.133,0.0818,–,–,–,–,0.342
HCC-15,0.29,0.423,0.421,0.37,0.303,–,0.219,0.169,0.165,0.379,–,0.166,0.0982,0.0697,1.28,1.2,0.448,0.39,0.318
NCI-H1563,–,–,–,–,0.54,0.481,0.504,0.446,0.408,–,–,–,–,–,–,–,–,–,–
COR-L 105,0.291,0.349,0.373,0.391,0.364,0.277,0.192,0.253,0.161,0.253,0.26,0.245,0.237,0.229,–,–,–,–,0.348
NCI-H647,0.35,0.364,0.566,0.448,0.128,0.174,0.0674,0.0695,0.0608,0.201,0.157,0.0667,0.0489,0.061,0.448,0.588,0.402,0.333,0.481
LU99A,0.265,0.266,0.252,0.286,0.21,0.176,0.134,0.137,0.123,0.266,0.178,0.185,0.225,0.138,0.364,0.458,0.368,0.177,0.285
NCI-H1703,–,–,–,–,–,–,–,–,–,–,–,–,–,–,0.103,0.072,0.118,0.118,–
NCI-H2170,0.791,0.928,0.675,0.719,0.587,–,0.463,0.238,0.148,0.756,–,0.429,0.181,0.181,0.793,0.718,0.317,0.236,0.797
NCI-H2342,0.447,0.492,0.397,0.583,0.843,0.69,0.49,0.47,0.334,0.406,0.495,0.295,0.305,0.278,0.473,0.622,0.557,0.546,0.513
LCLC-97TM1,0.231,0.289,0.163,0.247,0.829,0.416,0.338,0.268,0.221,0.277,0.139,0.181,0.199,0.221,0.16,0.276,0.22,0.132,0.217
